Consider four compounds from patent publication US11110117B2, “Skin preparation composition for external use containing complex hyaluronic acid” (J2KBIO CO., LTD., priority 2019, dated 2021).

A short description of test [1]: Antioxidant effect (active oxygen scavenging) by NBT method. The class given is biochemical. Conditions: sample 0.1 weight %, absorbance 560 nm. The method, then:
In order to measure the antioxidant effect, active oxygen generated by xanthine and xanthine oxidase was measured by the NBT method, and an effect of removing active oxygen by a test substance, that is, the active oxygen scavenging effect was evaluated. Active oxygen was generated by xanthine and xanthine oxidase, and this active oxygen reacts with nitro blue tetrazolium (NBT). […] 0.1 ml of a xanthine oxidase solution was added and quickly stirred, culture at 25° C. for 20 minutes was started, 0.1 ml of a 6 mM CuCl2 solution was added to stop the reaction, and an absorbance St at 560 nm was measured. In a blank test, the same operation was performed in the same manner except that distilled water was used instead of the sample solution, and an absorbance Bt was measured. In a blank of the sample solution, the same operation was performed in the same manner except that the distilled water was used instead of xanthine oxidase, and an absorbance […] was measured. Inhibition rate (%)=[1−(St−So)/(Bt−Bo)]×100 <Equation 1> St: Absorbance at 560 nm after enzyme reaction of sample solution Bt: Absorbance at 560 nm after enzyme reaction of blank test solution So: Absorbance at 560 nm before reaction of sample solution in the absence of enzyme Bo: Absorbance at 560 nm before reaction of blank test solution in the absence of enzyme

Test [2] is described as follows: Free radical scavenging activity by DPPH method. Format: biochemical. To be noted: sample 0.1 weight %, 30 minutes at 37° C. The method, then:
Each sample was prepared at the concentration of 0.1% to measure DPPH free radical scavenging activity. Each sample at the above concentration was introduced to a 96-well plate, and DPPH produced with a 100 uM methanol solution was added thereto, such that the total volume of the solution became 200 μl. The resultant was left for 30 minutes at 37° C., and an absorbance was measured at 560 nm. The free radical scavenging activity (%) was calculated by Equation 2 below. Free radical scavenging activity (%)=100−(B/A)×100 <Equation 2> A: Absorbance of control wells in the absence of sample treatment B: Absorbance of experimental wells with sample treatment
Background: Loss of DPPH colour is used to gauge radical scavenging.

Test [3] deals with Human keratinocytes HaCaT cell lines. In words: Intracellular active oxygen scavenging effect after UVB (DCFH-DA fluorescence). Format: cell-based. To be noted: sample 0.01 weight %, UVB 20 mJ/cm^2. Here is the method: Cell lines used in the experiment were the Human keratinocytes HaCaT cell lines distributed from Dr. Fusenig in German Cancer Research Center. […] Subsequently, 100 μl of HCSS treated for each concentration was added, and then the fluorescence of dichlorofluorescein (DCF) oxidized with active oxygen in the early stage was measured with a fluorescent plate reader (Ex; 485 nm, and Em; 530 nm). Subsequently, irradiation with UVB (20 mJ/cm^2) was performed, and the fluorescence after the sample treatment was measured by a fluorescent plate reader (Ex; 485 nm, and Em; 530 nm).

In another test the test system is MMP-1. In words: MMP-1 expression inhibition after UVA irradiation (ELISA). The class given is cell-based. Conditions: retinol, concentration not given; human dermal fibroblasts, UVA 6.3 J/cm^2, 24 hours. Here is the method: Human dermal fibroblasts were irradiated with UVA at an energy of 6.3 J/cm^2 by using a UV chamber. With respect to UV irradiation dose and culture time, conditions for maximizing an MMP expression amount in fibroblasts were established by preliminary experiments. A negative control was wrapped in silver foil and kept for the same period of time in the UVA environment. A UVA emission amount was measured by using a UV radiometer. The cells during the UVA irradiation were the same medium inoculated before without change and were exchanged with a medium containing the samples after UVA irradiation. The medium was collected after culturing for 24 hours, and 96 wells were coated with the medium. A primary antibody (MMP-1 (Ab-5) monoclonal antibody) was treated and reacted at 37° C. for 60 minutes. After an anti-mouse IgG (whole mouse, alkaline phosphatase conjugated), which was a secondary antibody, was reacted again for about 60 minutes, the alkaline phosphatase substrate solution (1 mg/ml p-nitrophenyl phosphate in diethanolamine buffer solution) was reacted at room temperature for 30 minutes, and then an absorbance was measured at 405 nm with a plate reader. As a control, a medium to which the sample was not added was used.

In a further test the test system is type 1 procollagen. The experiment in a line: Type 1 procollagen biosynthesis promoting effect (procollagen type-1 C-peptide EIA). Format: cell-based. Conditions: sample 0.001 weight %; human dermal fibroblasts, 24 hours. The method, then: Human dermal fibroblasts isolated from neonatal foreskin tissues were distributed from Modern Tissue Technology (MTT, Korea), and a 10% fetal bovine serum (FBS) was added to a medium of DMEM/F-12 (3:1) and cultured at the concentration of 1×10^4 cell/cm^2. At about 70% to 80% confluence, the cells were inoculated at a ratio of 1:3 and subcultured, and the cells subcultured for the third to fourth generations were used in the experiment.
For experiments to measure the amount of procollagen, the fibroblasts were cultured by more than 90% in a 48-well plate, and then each of […], and an amount of collagen isolated in the medium after 24 hours was measured by using a procollagen type-1 C-peptide EIA kit (MK101, Takara, Japan).

With `Cc1cc(C(C)(C)C)c(O)c(C(C)(C)C)c1` [BHT, butylated hydroxytoluene], the “Antioxidant effect (active oxygen scavenging) (%)” value in test [1] worked out at 87%. Also, the “Free radical scavenging activity (%)” value in test [2] came to 81%. Take `O=C(O[C@@H]1Cc2c(O)cc(O)cc2O[C@@H]1c1cc(O)c(O)c(O)c1)c1cc(O)c(O)c(O)c1` [EGCG]: the “Active oxygen scavenging effect (%)” value in test [3] is 45%. Take `CC1=C(/C=C/C(C)=C/C=C/C(C)=C/CO)C(C)(C)CCC1` [Retinol, retinol]: the “MMP-1 expression inhibition rate (%)” value in the test with MMP-1 stood at 38%. Regarding TGF-β, the “Procollagen biosynthesis promoting effect (%)” value in the test on type 1 procollagen is reported as 35%.
